How the values were obtained:
Format in all cases: in vivo
[1] = system: Plutella xylostella (Diamond Back Moth); test: Plutella xylostella, artificial diet MTP test; details: 144 h, 200 ppm (concentration in well 18 ppm), L2 larvae, 6 days
Experimental: 24-well microtiter plate (MTP) with artificial diet was treated with test solutions at an application rate of 200 ppm (concentration in well 18 ppm) by pipetting. After drying, the MTP's were infested with L2 larvae (7-12 per well). After an incubation period of 6 days, samples were checked for larval mortality and growth regulation. The following compound gave at least 80% mortality of Plutella xylostella: 1, 2, 3, 4, 5, 6, 7, 8, 9, 10, 11, 12, 13, 14, 15, 16, 17, 18, 19, 20, 21, 22, 23, 24, 25, 26, 27, 28, 29, 30, 31, 32, 33, 34, 35, 36, 37, 38, 39, 40, 41, 42, 43, 44, 45, 46, 47, 48, 49, 50.

[2] = system: Myzus persicae (Green Peach Aphid); test: Myzus persicae, sunflower leaf disc spray test; details: foliar, 144 h, sprayed sunflower leaf discs, aphid population of mixed ages, mortality after 6 DAT
Experimental: Sunflower leaf discs were placed on agar in a 24-well microtiter plate and sprayed with test solutions at an application rate of 200 ppm. After drying, the leaf discs were infested with an aphid population of mixed ages. After an incubation period of 6 DAT, samples were checked for mortality.

[3] = system: Thrips tabaci (Onion Thrips); test: Thrips tabaci, sunflower leaf disc spray test; details: foliar, 168 h, sprayed sunflower leaf discs, mortality after 7 days
[4] = system: Diabrotica balteata (Corn Root Worm); test: Diabrotica balteata, artificial diet MTP test; details: 120 h, 200 ppm (concentration in well 18 ppm), L2 larvae, larval mortality after 5 days
Experimental: A 24-well microtiter plate (MTP) with artificial diet was treated with test solutions at an application rate of 200 ppm (concentration in well 18 ppm) by pipetting. After drying, the MTP's were infested with L2 larvae (6-10 per well). After an incubation period of 5 days, samples were checked for larval mortality The following compound gave at least 80% control of Diabrotica balteata: 1, 2, 3, 4, 5, 6, 7, 8, 9, 10, 11, 12, 13, 14, 15, 16, 17, 18, 19, 20, 21, 22, 23, 24, 25, 26, 27, 28, 29, 30, 31, 32, 33, 34, 35, 36, 37, 38, 39, 40, 41, 42, 43, 44, 45, 46, 47, 48, 49, 50, 51.

[5] = system: Myzus persicae (Green Peach Aphid); test: Myzus persicae, sucrose solution / Parafilm test; details: 120 h, mixed with sucrose solution under Parafilm, mortality 5 days after infestation
Text: Test compounds were applied by pipette into 24 well plates and mixed with Sucrose solution. Application rate: 12.5 ppm. The plates were closed with a stretched Parafilm. A plastic stencil with 24 holes is placed onto the plate and infested pea seedlings were placed directly on the Parafilm. The infested plate is closed with a gel blotting paper and another plastic stencil and then turned upside down. 5 days after infestation the samples were checked on mortality.

[6] = system: Spodoptera littoralis (Egyptian Cotton Leaf Worm); test: Spodoptera littoralis, agar / lettuce root uptake test; details: 144 h, mixed with agar, uptake by lettuce roots, mortality 6 days after infestation
Text: Test compounds were applied by pipette into 24 well plates and mixed with agar. Application rate: 12.5 ppm. Lettuce seeds were placed on the agar and the multi well plate is closed by another plate which contains also agar. After 7 days the roots have absorbed the compound and the lettuce has grown into the lid plate. The lettuce leafs were now cut off into the lid plate. Spodoptera eggs were pipetted through a plastic stencil on a humid gel blotting paper and the plate closed with it. The samples are checked for mortality 6 days after infestation.

[7] = system: Spodoptera littoralis (Egyptian Cotton Leafworm); test: Spodoptera littoralis, cotton leaf disc spray test; details: foliar, 72 h, sprayed cotton leaf discs, L1 larvae, 3 days after treatment
Text: Cotton leaf discs were placed on agar in a 24-well microtiter plate and sprayed with test solutions at an application rate of 200 ppm. After drying, the leaf discs were infested with 5 L1 larvae. The samples were checked for mortality 3 days after treatment (DAT).

[8] = system: Tetranychus urticae (Two-Spotted Spider Mite); test: Tetranychus urticae, bean leaf disc spray test; details: foliar, 192 h, sprayed bean leaf discs, mite populations of mixed ages, 8 days
Text: Bean leaf discs on agar in 24-well microtiter plates were sprayed with test solutions at an application rate of 200 ppm. After drying, the leaf discs are infested with mite populations of mixed ages. 8 days later, discs were checked for mortality.

CCc1cc(C(F)(C(F)(F)F)C(F)(F)Cl)cc(Br)c1NC(=O)c1cccc(NC(=O)c2cccnc2)c1OC (stereo not shown) [Compound 21]
≥ 80%: mortality at 200 ppm [1] | pest or weed control at 200 ppm [2] | pest or weed control at 200 ppm [3] | pest or weed control at 200 ppm [4] | pest or weed control at 12.5 ppm [5] | pest or weed control at 12.5 ppm [6] | mortality at 200 ppm [7] | mortality at 200 ppm [8]

CCN(C(=O)c1ccncc1)c1cccc(C(=O)Nc2c(Br)cc(C(F)(C(F)(F)F)C(F)(F)Cl)cc2OC(F)F)c1F (stereo not shown) [Compound 35]
≥ 80%: mortality at 200 ppm [1] | pest or weed control at 200 ppm [2] | pest or weed control at 200 ppm [3] | pest or weed control at 200 ppm [4] | pest or weed control at 12.5 ppm [5] | pest or weed control at 12.5 ppm [6] | mortality at 200 ppm [7] | mortality at 200 ppm [8]

N#Cc1ccc(C(=O)Nc2cccc(C(=O)Nc3c(Br)cc(C(F)(C(F)(F)F)C(F)(F)Br)cc3OC(F)F)c2F)cc1 (stereo not shown) [Compound 5]
≥ 80%: mortality at 200 ppm [1] | pest or weed control at 200 ppm [2] | pest or weed control at 200 ppm [3] | pest or weed control at 200 ppm [4] | pest or weed control at 12.5 ppm [5] | pest or weed control at 12.5 ppm [6] | mortality at 200 ppm [7] | mortality at 200 ppm [8]

CCN(C(=O)c1ccc(C#N)cc1)c1cccc(C(=O)Nc2c(Br)cc(C(F)(C(F)(F)F)C(F)(F)Br)cc2OC(F)F)c1OC (stereo not shown) [Compound 10]
≥ 80%: mortality at 200 ppm [1] | pest or weed control at 200 ppm [2] | pest or weed control at 200 ppm [3] | pest or weed control at 200 ppm [4] | pest or weed control at 12.5 ppm [5] | pest or weed control at 12.5 ppm [6] | mortality at 200 ppm [7] | mortality at 200 ppm [8]

COc1c(NC(=O)c2ccc[n+]([O-])c2)cccc1C(=O)Nc1c(Br)cc(C(F)(C(F)(F)F)C(F)(F)Cl)cc1OC(F)F (stereo not shown) [Compound 26]
≥ 80%: mortality at 200 ppm [1] | pest or weed control at 200 ppm [2] | pest or weed control at 200 ppm [3] | pest or weed control at 200 ppm [4] | pest or weed control at 12.5 ppm [5] | pest or weed control at 12.5 ppm [6] | mortality at 200 ppm [7] | mortality at 200 ppm [8]

COc1c(NC(=O)c2cc[n+]([O-])cc2)cccc1C(=O)Nc1c(Br)cc(C(F)(C(F)(F)F)C(F)(F)Cl)cc1OC(F)F (stereo not shown) [Compound 25]
≥ 80%: mortality at 200 ppm [1] | pest or weed control at 200 ppm [2] | pest or weed control at 200 ppm [3] | pest or weed control at 200 ppm [4] | pest or weed control at 12.5 ppm [5] | pest or weed control at 12.5 ppm [6] | mortality at 200 ppm [7] | mortality at 200 ppm [8]

O=C(Nc1cccc(C(=O)Nc2c(Br)cc(C(F)(C(F)(F)F)C(F)(F)Br)cc2OC(F)F)c1F)c1ccncc1 (stereo not shown) [Compound 4]
≥ 80%: mortality at 200 ppm [1] | pest or weed control at 200 ppm [2] | pest or weed control at 200 ppm [3] | pest or weed control at 200 ppm [4] | pest or weed control at 12.5 ppm [5] | pest or weed control at 12.5 ppm [6] | mortality at 200 ppm [7] | mortality at 200 ppm [8]

CCN(C(=O)c1ccc(C#N)cc1)c1cccc(C(=O)Nc2c(Br)cc(C(F)(C(F)(F)F)C(F)(F)Cl)cc2OC(F)F)c1F (stereo not shown) [Compound 31]
≥ 80%: mortality at 200 ppm [1] | pest or weed control at 200 ppm [2] | pest or weed control at 200 ppm [3] | pest or weed control at 200 ppm [4] | pest or weed control at 12.5 ppm [5] | pest or weed control at 12.5 ppm [6] | mortality at 200 ppm [7] | mortality at 200 ppm [8]

COc1c(NC(=O)c2cccnc2)cccc1C(=O)Nc1c(Br)cc(C(F)(C(F)(F)F)C(F)(F)Cl)cc1OC(F)F (stereo not shown) [Compound 15]
≥ 80%: mortality at 200 ppm [1] | pest or weed control at 200 ppm [2] | pest or weed control at 200 ppm [3] | pest or weed control at 200 ppm [4] | pest or weed control at 12.5 ppm [5] | pest or weed control at 12.5 ppm [6] | mortality at 200 ppm [7] | mortality at 200 ppm [8]

CCN(C(=O)c1ccc[n+]([O-])c1)c1cccc(C(=O)Nc2c(Br)cc(C(F)(C(F)(F)F)C(F)(F)Cl)cc2OC(F)F)c1F (stereo not shown) [Compound 47]
≥ 80%: mortality at 200 ppm [1] | pest or weed control at 200 ppm [2] | pest or weed control at 200 ppm [3] | pest or weed control at 200 ppm [4] | pest or weed control at 12.5 ppm [5] | pest or weed control at 12.5 ppm [6] | mortality at 200 ppm [7] | mortality at 200 ppm [8]

CCN(C(=O)c1cccnc1)c1cccc(C(=O)Nc2c(Br)cc(C(F)(C(F)(F)F)C(F)(F)Cl)cc2OC(F)F)c1F (stereo not shown) [Compound 39]
≥ 80%: mortality at 200 ppm [1] | pest or weed control at 200 ppm [2] | pest or weed control at 200 ppm [3] | pest or weed control at 200 ppm [4] | pest or weed control at 12.5 ppm [5] | pest or weed control at 12.5 ppm [6] | mortality at 200 ppm [7] | mortality at 200 ppm [8]

CCN(C(=O)c1ccc(C#N)cc1)c1cccc(C(=O)Nc2c(Br)cc(C(F)(C(F)(F)F)C(F)(F)Br)cc2OC(F)F)c1F (stereo not shown) [Compound 8]
≥ 80%: mortality at 200 ppm [1] | pest or weed control at 200 ppm [2] | pest or weed control at 200 ppm [3] | pest or weed control at 200 ppm [4] | pest or weed control at 12.5 ppm [5] | pest or weed control at 12.5 ppm [6] | mortality at 200 ppm [7] | mortality at 200 ppm [8]

CCc1cc(C(F)(C(F)(F)F)C(F)(F)Cl)cc(Br)c1NC(=O)c1cccc(N(CC)C(=O)c2ccc[n+]([O-])c2)c1OC (stereo not shown) [Compound 50]
≥ 80%: mortality at 200 ppm [1] | pest or weed control at 200 ppm [2] | pest or weed control at 200 ppm [3] | pest or weed control at 200 ppm [4] | pest or weed control at 12.5 ppm [5] | pest or weed control at 12.5 ppm [6] | mortality at 200 ppm [7] | mortality at 200 ppm [8]

CCN(C(=O)c1ccc(C#N)cc1)c1cccc(C(=O)Nc2c(Br)cc(C(F)(C(F)(F)F)C(F)(F)Cl)cc2OC(F)F)c1OC (stereo not shown) [Compound 32]
≥ 80%: mortality at 200 ppm [1] | pest or weed control at 200 ppm [2] | pest or weed control at 200 ppm [3] | pest or weed control at 200 ppm [4] | pest or weed control at 12.5 ppm [5] | pest or weed control at 12.5 ppm [6] | mortality at 200 ppm [7] | mortality at 200 ppm [8]

CCN(C(=O)c1ccncc1)c1cccc(C(=O)Nc2c(Br)cc(C(F)(C(F)(F)F)C(F)(F)Br)cc2OC(F)F)c1F (stereo not shown) [Compound 7]
≥ 80%: mortality at 200 ppm [1] | pest or weed control at 200 ppm [2] | pest or weed control at 200 ppm [3] | pest or weed control at 200 ppm [4] | pest or weed control at 12.5 ppm [5] | pest or weed control at 12.5 ppm [6] | mortality at 200 ppm [7] | mortality at 200 ppm [8]

O=C(Nc1cccc(C(=O)Nc2c(Br)cc(C(F)(C(F)(F)F)C(F)(F)Cl)cc2OC(F)F)c1F)c1ccncc1 (stereo not shown) [Compound 11]
≥ 80%: mortality at 200 ppm [1] | pest or weed control at 200 ppm [2] | pest or weed control at 200 ppm [3] | pest or weed control at 200 ppm [4] | pest or weed control at 12.5 ppm [5] | pest or weed control at 12.5 ppm [6] | mortality at 200 ppm [7] | mortality at 200 ppm [8]

O=C(Nc1cccc(C(=O)Nc2c(Br)cc(C(F)(C(F)(F)F)C(F)(F)Cl)cc2OC(F)F)c1F)c1cc[n+]([O-])cc1 (stereo not shown) [Compound 23]
≥ 80%: mortality at 200 ppm [1] | pest or weed control at 200 ppm [2] | pest or weed control at 200 ppm [3] | pest or weed control at 200 ppm [4] | pest or weed control at 12.5 ppm [5] | pest or weed control at 12.5 ppm [6] | mortality at 200 ppm [7] | mortality at 200 ppm [8]

Reference: USRE49022E1, “Insecticidal compounds” (SYNGENTA PARTICIPATIONS AG, priority 2013, dated 2022)
